Laboratory results as given in PubChem BioAssay (NCI).
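Where inhibition never reached the appropriate level, the endpoint shown equals the highest concentration tested. Otherwise, values were interpolated linearly from a five-concentration, 48-hour dose response in 96-well plates. GI50: concentration for 50% inhibition of growth. The concentration for full growth arrest is given as TGI.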

What was measured:
Experiment in all cases: NCI tumour cell line growth inhibition, 48 h
CAKI-1 renal = tested on: CAKI-1 renal
HCT-116 colon = tested on: HCT-116 colon
HS 578T breast = tested on: HS 578T breast
NCI-H23 lung = tested on: NCI-H23 lung
NCI-H522 lung = tested on: NCI-H522 lung
OVCAR-4 ovarian = tested on: OVCAR-4 ovarian
SK-MEL-28 melanoma = tested on: SK-MEL-28 melanoma
SK-OV-3 ovarian = tested on: SK-OV-3 ovarian
SN12C renal = tested on: SN12C renal
U251 CNS = tested on: U251 CNS

For `COc1ccc(/C=C2\COc3ccc(O)c(O)c3C2=O)cc1OC`, the GI50 (CAKI-1 renal) was 1220 nM, the TGI (CAKI-1 renal) was 2980 nM and the GI50 (HCT-116 colon) was 1470 nM. The TGI (HCT-116 colon) was 3610 nM, the GI50 (HS 578T breast) was 2230 nM and the TGI (HS 578T breast) was 8290 nM. It also gave a GI50 (NCI-H23 lung) of 1890 nM, a TGI (NCI-H23 lung) of 5560 nM and a GI50 (NCI-H522 lung) of 199 nM. It also gave a TGI (NCI-H522 lung) of 473 nM, a GI50 (OVCAR-4 ovarian) of 1610 nM and a TGI (OVCAR-4 ovarian) of 13300 nM. For the same molecule, the GI50 (SK-MEL-28 melanoma) was 1800 nM, the TGI (SK-MEL-28 melanoma) was 3690 nM and the GI50 (SK-OV-3 ovarian) was 3830 nM. The TGI (SK-OV-3 ovarian) was greater than 100000 nM, the GI50 (SN12C renal) was 1390 nM and the TGI (SN12C renal) was 5160 nM. It also gave a GI50 (U251 CNS) of 991 nM and a TGI (U251 CNS) of 7200 nM.
Work on `Cc1c(Cl)cccc1NC(=O)c1sc2nc3c(cc2c1N)C(=O)CCC3` yielded a GI50 (CAKI-1 renal) of 46.1 nM, a TGI (CAKI-1 renal) greater than 100000 nM and a GI50 (HCT-116 colon) of 64.4 nM. The TGI (HCT-116 colon) was greater than 100000 nM, the GI50 (HS 578T breast) was 47.9 nM and the TGI (HS 578T breast) was greater than 58200 nM. The GI50 (NCI-H23 lung) was 137 nM, the TGI (NCI-H23 lung) was greater than 100000 nM and the GI50 (NCI-H522 lung) was 20.4 nM. The TGI (NCI-H522 lung) was 395 nM, the GI50 (OVCAR-4 ovarian) was 569 nM and the TGI (OVCAR-4 ovarian) was greater than 84700 nM. It also gave a GI50 (SK-MEL-28 melanoma) of 174 nM, a TGI (SK-MEL-28 melanoma) greater than 100000 nM and a GI50 (SK-OV-3 ovarian) of 59.7 nM. The TGI (SK-OV-3 ovarian) was greater than 89700 nM, the GI50 (SN12C renal) was 124 nM and the TGI (SN12C renal) was greater than 100000 nM. It also gave a GI50 (U251 CNS) of 83.6 nM and a TGI (U251 CNS) greater than 37400 nM.
In the case of `C[C@@H](CS[As](C)C)C(=O)N1CCC[C@H]1C(=O)O`, the GI50 (CAKI-1 renal) is reported as 97.7 nM, the TGI (CAKI-1 renal) is reported as 409 nM and the GI50 (HCT-116 colon) is reported as 167 nM. It also gave a TGI (HCT-116 colon) greater than 100000 nM, a GI50 (HS 578T breast) of 255 nM and a TGI (HS 578T breast) of 796 nM. For the same molecule, the GI50 (NCI-H23 lung) was 359 nM, the TGI (NCI-H23 lung) was 2330 nM and the GI50 (NCI-H522 lung) was 71.5 nM. For the same molecule, the TGI (NCI-H522 lung) was 199 nM, the GI50 (OVCAR-4 ovarian) was 1300 nM and the GI50 (SK-MEL-28 melanoma) was 708 nM. For the same molecule, the TGI (SK-MEL-28 melanoma) was 21800 nM, the GI50 (SK-OV-3 ovarian) was 625 nM and the TGI (SK-OV-3 ovarian) was 14600 nM. For the same molecule, the GI50 (SN12C renal) was 200 nM, the TGI (SN12C renal) was 1030 nM and the GI50 (U251 CNS) was 482 nM. For the same molecule, the TGI (U251 CNS) was 2430 nM.
